Assay results published in the NIST ThermoML archive (doi:10.1021/je050317k).
± gives the expanded uncertainty stated by the source. Each block holds one compound with its values, some of them ahead of it.

Conditions: Liquid

SMILES: CC(Cl)CCl (stereo unspecified) [1,2-dichloropropane]
- vapor or sublimation pressure (333.15 K): 30.14 ± 0.27 kPa
- vapor or sublimation pressure (353.15 K): 61.07 ± 0.44 kPa

SMILES: OCCCCO [1,4-butanediol]
- vapor or sublimation pressure (383.15 K): 0.664 ± 0.064 kPa

- vapor or sublimation pressure (333.15 K): 103.15 ± 1.3 kPa
- vapor or sublimation pressure (373.1 K): 316.61 ± 2.2 kPa
SMILES: C=CCCC=C [1,5-hexadiene]

- vapor or sublimation pressure (333.15 K): 37.73 ± 0.44 kPa
- vapor or sublimation pressure (393.15 K): 249.59 ± 1.8 kPa
- vapor or sublimation pressure (453.15 K): 939.9 ± 6 kPa
SMILES: CC(=O)OC(C)C [1-methylethyl ethanoate]

- vapor or sublimation pressure (298.15 K): 352.39 ± 2.8 kPa
- vapor or sublimation pressure (348.15 K): 1212.7 ± 7.9 kPa
SMILES: CC(C)C [2-methylpropane]

SMILES: C=CCCl [3-chloro-1-propene]
- vapor or sublimation pressure (333.15 K): 164.65 ± 1.6 kPa
- vapor or sublimation pressure (373.1 K): 489.25 ± 3.4 kPa

SMILES: Cl/C=C\CCl [(Z)-1,3-dichloro-1-propene]
- vapor or sublimation pressure (333.15 K): 22.61 ± 0.25 kPa
- vapor or sublimation pressure (353.15 K): 47.29 ± 0.42 kPa

- vapor or sublimation pressure (333.15 K): 49.16 ± 0.53 kPa
- vapor or sublimation pressure (393.15 K): 297.37 ± 2.1 kPa
- vapor or sublimation pressure (453.15 K): 1096.9 ± 7 kPa
SMILES: CC#N [acetonitrile]

- vapor or sublimation pressure (373.1 K): 3.573 ± 0.091 kPa
- vapor or sublimation pressure (433.15 K): 32.02 ± 0.24 kPa
SMILES: CC(=O)c1ccccc1 [acetophenone]

SMILES: C=CCl [chloroethene]
- vapor or sublimation pressure (273.1 K): 172 ± 1.8 kPa
- vapor or sublimation pressure (313.15 K): 601.5 ± 4 kPa

SMILES: C1CO1 [oxirane]
- vapor or sublimation pressure (298.15 K): 174.71 ± 1.6 kPa
- vapor or sublimation pressure (348.15 K): 766.7 ± 5 kPa

- vapor or sublimation pressure (373.1 K): 5.506 ± 0.12 kPa
- vapor or sublimation pressure (433.15 K): 53.23 ± 0.37 kPa
SMILES: Oc1ccccc1 [phenol]

SMILES: O=C1CCCO1 [γ-butyrolactone]
- vapor or sublimation pressure (383.15 K): 5.15 ± 0.087 kPa
